# Earlier results as cited in US20110004098A1, “ESTER IMAGING AGENTS” (priority 2008, published 2011).
# Tested on: bladder carcinoma in situ
# Settings: cystoscopy with Hexvix, as opposed to 58% with white light cystoscopy
smiles,measurement,value
"CCCCCCOC(=O)CCC(=O)CN.Cl [Hexvix, n-hexyl 5-aminolevulinate hydrochloride]",sensitivity of detecting bladder carcinoma in situ,97%
